Experimental data from PubChem BioAssay (NCI).
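Grown in 96-well plates, cells were treated for 48 hours with each compound at five concentrations. Insufficient inhibition: endpoint recorded as highest concentration tested. Here, GI50 denotes the concentration required for 50% inhibition of growth. TGI is the concentration that stops growth completely.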

Legend:
Experiment in all cases: growth of human tumour cells (NCI), 48 h
[1] = test system: NCI-H23 lung
[2] = test system: UACC-62 melanoma
[3] = test system: SNB-75 CNS
[4] = test system: HT29 colon
[5] = test system: LOX IMVI melanoma
[6] = test system: HOP-92 NSCLC
[7] = test system: SN12C renal
[8] = test system: OVCAR-8 ovarian
[9] = test system: SK-OV-3 ovarian
[10] = test system: HCC-2998 colon
[11] = test system: HL-60(TB) leukemia
[12] = test system: SW-620 colon
[13] = test system: MCF7 breast
[14] = test system: RPMI-8226 leukemia
[15] = test system: MOLT-4 leukemia
[16] = test system: UACC-257 melanoma
[17] = test system: EKVX NSCLC
[18] = test system: U251 CNS
[19] = test system: NCI/ADR-RES ovarian
[20] = test system: DU-145 prostate
[21] = test system: COLO 205 colon
[22] = test system: MDA-MB-435
[23] = test system: 786-0 renal
[24] = test system: PC-3 prostate
[25] = test system: SK-MEL-28 melanoma
[26] = test system: K-562 leukemia
[27] = test system: ACHN renal
[28] = test system: SK-MEL-2 melanoma
[29] = test system: SF-268 CNS
[30] = test system: HCT-116 colon
[31] = test system: KM12 colon
[32] = test system: BT-549 breast
[33] = test system: M14 melanoma
[34] = test system: NCI-H522 lung
[35] = test system: HS 578T breast
[36] = test system: HOP-62 NSCLC
[37] = test system: SF-295 CNS
[38] = test system: SNB-19 CNS
[39] = test system: SF-539 CNS
[40] = test system: CCRF-CEM leukemia
[41] = test system: HCT-15 colon
[42] = test system: RXF 393 renal
[43] = test system: MALME-3M melanoma
[44] = test system: A549 NSCLC
[45] = test system: NCI-H226 lung
[46] = test system: OVCAR-5 ovarian
[47] = test system: MDA-MB-468 breast
[48] = test system: T-47D breast
[49] = test system: A498 renal
[50] = test system: SR leukemia
[51] = test system: NCI-H460 lung
[52] = test system: IGROV1 ovarian
[53] = test system: SK-MEL-5 melanoma
[54] = test system: CAKI-1 renal
[55] = test system: UO-31 renal
[56] = test system: OVCAR-4 ovarian
[57] = test system: MDA-MB-231 breast
[58] = test system: TK-10 renal
[59] = test system: OVCAR-3 ovarian

`CCN1CCN(c2ccc(NC(=O)Nc3ccc4c(c3F)CCN4c3ccnc(C(=O)NC)c3)cc2C(F)(F)F)CC1` gave a GI50 [1] of 5.97 µM, a TGI [1] of 12 µM and a GI50 [2] of 6.18 µM. It also gave a TGI [2] of 11.3 µM, a GI50 [3] of 0.585 µM and a TGI [3] of 6.84 µM. The GI50 [4] was 3.06 µM, the TGI [4] was 9.53 µM and the GI50 [5] was 5.54 µM. The TGI [5] was 10.7 µM, the GI50 [6] was 5.87 µM and the TGI [6] was 12.5 µM. The GI50 [7] was 5.88 µM, the TGI [7] was 11.2 µM and the GI50 [8] was 7.08 µM. The TGI [8] was 15.6 µM, the GI50 [9] was 5.84 µM and the TGI [9] was 11.6 µM. It also gave a GI50 [10] of 6.44 µM, a TGI [10] of 12 µM and a GI50 [11] of 6.65 µM. It also gave a TGI [11] of 15.7 µM, a GI50 [12] of 5.07 µM and a TGI [12] of 11.1 µM. It also gave a GI50 [13] of 5.93 µM, a TGI [13] of 13.1 µM and a GI50 [14] of 7.73 µM. The TGI [14] was 30.9 µM, the GI50 [15] was 2.09 µM and the TGI [15] was 16.3 µM. It also gave a GI50 [16] of 6.27 µM, a TGI [16] of 12 µM and a GI50 [17] of 6.71 µM. It also gave a TGI [17] of 12.6 µM, a GI50 [18] of 4.8 µM and a TGI [18] of 9.97 µM. The GI50 [19] was 6.87 µM, the TGI [19] was 16 µM and the GI50 [20] was 6.45 µM. For the same compound, the TGI [20] was 11.9 µM, the GI50 [21] was 10.7 µM and the TGI [21] was over 37.3 µM. The GI50 [22] was 5.09 µM, the TGI [22] was 10.4 µM and the GI50 [23] was 5.77 µM. For the same compound, the TGI [23] was 13.7 µM, the GI50 [24] was 7.39 µM and the TGI [24] was 18.9 µM. The GI50 [25] was 5.65 µM, the TGI [25] was 10.8 µM and the GI50 [26] was 7.43 µM. For the same compound, the TGI [26] was over 37.3 µM, the GI50 [27] was 5.9 µM and the TGI [27] was 10.9 µM. It also gave a GI50 [28] of over 37.3 µM, a TGI [28] of over 37.3 µM and a GI50 [29] of 6.13 µM. It also gave a TGI [29] of 14 µM, a GI50 [30] of 6.98 µM and a TGI [30] of 16.5 µM. For the same compound, the GI50 [31] was 0.341 µM, the TGI [31] was 6.62 µM and the GI50 [32] was 6.92 µM. The TGI [32] was 13.4 µM, the GI50 [33] was 6.8 µM and the TGI [33] was 14.5 µM. It also gave a GI50 [34] of 7.1 µM, a TGI [34] of 13.8 µM and a GI50 [35] of 4.9 µM. It also gave a TGI [35] of 13.2 µM, a GI50 [36] of 5.34 µM and a TGI [36] of 10.9 µM. The GI50 [37] was 3.52 µM, the TGI [37] was 8.23 µM and the GI50 [38] was 5.95 µM. It also gave a TGI [38] of 11.2 µM, a GI50 [39] of 2.35 µM and a TGI [39] of 7.24 µM. For the same compound, the GI50 [40] was 6.25 µM, the TGI [40] was 24.4 µM and the GI50 [41] was 5.54 µM. The TGI [41] was 12.1 µM, the GI50 [42] was 1.35 µM and the TGI [42] was 6.03 µM. For the same compound, the GI50 [43] was 5.49 µM, the TGI [43] was 10.5 µM and the GI50 [44] was 6.75 µM. For the same compound, the TGI [44] was 13.5 µM, the GI50 [45] was 6.58 µM and the TGI [45] was 14.7 µM. For the same compound, the GI50 [46] was 5.82 µM, the TGI [46] was 10.8 µM and the GI50 [47] was 6.36 µM. For the same compound, the TGI [47] was 12.7 µM, the GI50 [48] was over 37.3 µM and the TGI [48] was over 37.3 µM. The GI50 [49] was 5.77 µM, the TGI [49] was 10.9 µM and the GI50 [50] was 5.44 µM. It also gave a TGI [50] of 18.7 µM, a GI50 [51] of 6.04 µM and a TGI [51] of 12.3 µM. It also gave a GI50 [52] of 6.66 µM, a TGI [52] of 12.2 µM and a GI50 [53] of 6.1 µM. The TGI [53] was 11.3 µM, the GI50 [54] was 6.56 µM and the TGI [54] was 12 µM. The GI50 [55] was 5.43 µM, the TGI [55] was 10.3 µM and the GI50 [56] was 6.3 µM. The TGI [56] was 13.7 µM, the GI50 [57] was 6.26 µM and the TGI [57] was 11.5 µM. For the same compound, the GI50 [58] was 7.52 µM, the TGI [58] was 13.1 µM and the GI50 [59] was 6.02 µM. For the same compound, the TGI [59] was 11.6 µM.
